The NIST ThermoML archive (doi:10.1021/acs.jced.6b00197)
± gives the expanded uncertainty stated by the source.

Experiments:
[1] = Liquid; for mass density: 293.15 K, 101.33 kPa, Pycnometric method; for Normal boiling temperature: Ebulliometric method (Recirculating still)
[2] = refractive index (Na D-line) (dimensionless); details: 293.25 K; 101.33 kPa; Liquid; Standard Abbe refractometry
[3] = Boiling temperature at pressure P; details: Liquid, Ebulliometric method (Recirculating still)

CC(C)CCO [3-methylbutan-1-ol]
Details	Normal boiling temperature [°C]	mass density [kg/m3]	refractive index
[1]	131.30 ± 0.2	810 ± 8	–
[2]	–	–	1.4067 ± 0.0008

[3]
Details	Boiling temperature at pressure P [°C]
5 kPa	62.70 ± 0.26
10 kPa	75.77 ± 0.21
19.99 kPa	90.18 ± 0.16
40.01 kPa	106.36 ± 0.15
49.99 kPa	111.97 ± 0.15
59.99 kPa	116.67 ± 0.15
79.99 kPa	124.46 ± 0.14
100 kPa	130.86 ± 0.14
101.31 kPa	131.21 ± 0.14
120 kPa	136.04 ± 0.14
139.99 kPa	141.06 ± 0.14
159.99 kPa	145.36 ± 0.14
180.01 kPa	149.28 ± 0.14
200 kPa	152.86 ± 0.14

CC(=O)OCCC(C)C [3-methylbutyl ethanoate]
Details	Normal boiling temperature [°C]	mass density [kg/m3]	refractive index
[1]	142.09 ± 0.2	873 ± 8	–
[2]	–	–	1.4008 ± 0.0008

[3]
Details	Boiling temperature at pressure P [°C]
4.98 kPa	59.86 ± 0.29
10.05 kPa	75.04 ± 0.23
19.88 kPa	92.10 ± 0.17
39.98 kPa	111.42 ± 0.16
50.03 kPa	118.20 ± 0.15
60.02 kPa	123.93 ± 0.15
79.97 kPa	133.43 ± 0.15
99.82 kPa	141.17 ± 0.15
101.09 kPa	141.63 ± 0.15
120.12 kPa	147.90 ± 0.15
140.02 kPa	153.64 ± 0.15
159.98 kPa	158.77 ± 0.15
179.92 kPa	163.38 ± 0.15
199.94 kPa	167.59 ± 0.15
